The conditions of series [1]: individual rabbits. An excerpt: (§1) Rabbits were supplied solid food for rabbits (CR-3M, CLEA Japan, Inc., Tokyo, Japan), and the average amount of CR-3M that each rabbit ingested was 100–110 g/day. CR-3M contains various vitamins and cationic metals including Ca, Mg, and iron (Fe^2+, Fe^3+) in addition to various energy sources. […] Coprophagy was not prevented in control rabbits.
To estimate gastric contents, gastric Ca and Mg concentrations, and gastric pH in the untreated control (not fasted), control (fasted) and EDTA-treated rabbits, rabbits were sacrificed by intraperitoneal injection of an excess amount of pentobarbital. Rabbits were opened along the midline and their stomach was isolated. The stomach contents were taken out into a test tube and weighed, and the suspension was centrifuged at 3000 rpm for 10 min to measure the amount of gastric water. Then, concentrations of the Ca and Mg in the supernatant were measured by using L type Wako Ca (Fujifilm, Tokyo, Japan) and L type Wako Mg N (Fujifilm, Tokyo, Japan), respectively, and an automated clinical chemistry analyzer, TBA-nx360 (Canon, Tokyo, Japan). The pH of gastric water was also determined.

A short description of series [2]: Chelation with Al3+ ion in vitro (precipitation with AlCl3). Type of series: physicochemical. As to conditions: for Precipitation (%): drug 50 μM, pH 6.5, 30 min, 24 °C. Here is the method:
AlCl3 was also dissolved in the same buffer at a concentration of 50 μM, 100 μM, 200 μM, 1 mM, or 2 mM, and each drug solution and AlCl3 solution were mixed at an equal volume. The mixture solution was shaken, stood for 30 min at 24 °C and centrifuged. The supernatant was filtrated through a syringe filter with 0.22 μm of pore size (Millipore, Tokyo, Japan).

For series [3] the following is noted: rats; cited from earlier work.
The nature of series [4]: Mucosal damage after EDTA treatment: oral absorption of FD-4. To be noted: >10 mL of 1 mg/mL EDTA 2Na orally, rabbits. The protocol: FD-4 was administered orally by stomach intubation at 10 mg/kg and 10 mL water. Blood (100 μL each) was taken periodically at 0, 0.5, 1, 2, and 4 h after administration from the ear vein. […] The concentrations of FD-4 in plasma were determined by Spectro fluorophotometer RF-1500 (Shimadzu Co., Ltd., Kyoto, Japan) using an excitation and emission wavelength of 480 nm and 520 nm, respectively.

For series [5] the following is noted: control rabbits.
For series [6] the following is noted: cited from earlier work.
The nature of series [7]: in vivo. To be noted: male, albino, rabbit, iv, 10 mg/kg.
The nature of series [8]: in vivo. To be noted: for AUC(0-t) / AUC(0-inf) / bioavailability / Cmax / Tmax: male, albino, rabbit, in vivo, po, 150 mg/kg, TC 150 mg/kg orally; for AUC(0-t): AUC0–6h; for AUC(0-inf): AUC0–∞; for bioavailability: Bioavailability (absolute oral). The protocol:
as §1
After administration orally by stomach intubation, blood samples (100 μL each) were taken periodically from the ear vein at 0.25, 0.5, 1, 2, 4 and 6 h. Blood samples were centrifuged at 3000× g for 10 min to obtain plasma samples.

[9] abbreviates: gastric water, EDTA-treated rabbits.

“And” between values parts separate entries of the source, which are not always exact repeats. Equal values may be shown once. “Also recorded” adds a separate entry of the source. Where a name gives a salt, the structure may show the parent alone.

What is called AUC(0-t) is exposure summed from dosing to a finite time, without extrapolation to infinity. A high value points to high exposure. By AUC(0-inf) is commonly meant the area under the concentration-time curve extrapolated to infinity. For orientation: bioavailability means the share of a dose that reaches the circulation, judged against a reference dose that is usually intravenous. A higher bioavailability goes with much systemic uptake. For orientation: Cmax means the highest concentration seen after dosing. Broadly, the Tmax is the time at which the peak concentration occurs.

In the case of `O=C([O-])CN(CCN(CC(=O)O)CC(=O)O)CC(=O)[O-].[Na+].[Na+]` [EDTA 2Na, disodium ethylenediamine tetraacetic acid], the “Gastric Contents (g)” value in series [1] (EDTA-treated rabbits (free access to 1 mg/mL EDTA 2Na, 10 mL at 1 h before; coprophagy prevented)) is given as “(3) 13.1 (hair > pellets) g; also recorded: (1) 9.5 (hair > pellets) g; also recorded: (2) 7.8 (hair > pellets) g”. For the same compound, in series [1] (EDTA-treated rabbits), the “Gastric pH” value is 1.3 and 1.6 and 1.2; the “Water Contents” value was 10.5 mL and 6.7 mL and 4.8 mL. Besides, in series [1] (setting [9]), the “Concentrations Ca” value is 1.9 mg/dL and 2.6 mg/dL and 1.3 mg/dL; the “Concentrations Mg” value is 1.9 mg/dL and 1.6 mg/dL. In addition, the “Effect of added EDTA 2Na on precipitation of CFX with AlCl3” value in series [2] (EDTA 2Na 4 mg/mL, 12 mM added to mixture solutions of CFX and AlCl3) was “completely inhibited”. For the same compound, in series [3], the “Lowest effective dose to increase the permeability of dichloromethylene bisphosphonate” value is listed as 100 mg/kg and the “Minimal effective dose to increase membrane permeability to 4-amino-1-hydroxybutylidene-1,1-bisphosphonate” value is reported as 10 mg/kg. Further, the “Mucosal damage after EDTA treatment” value in series [4] is “without causing mucosal damage”.

As to `CN(C)[C@@H]1C(O)=C(C(N)=O)C(=O)[C@@]2(O)C(O)=C3C(=O)c4c(O)cccc4[C@@](C)(O)[C@H]3C[C@@H]12` [TC, tetracycline hydrochloride], the β in series [5] ([…] iv infusion, LFX 20, CFX 30, TC 10 mg/kg) was 0.28 ± 0.10 h⁻¹. Moreover, the “Total plasma clearance (CLtotal), Doseiv/AUC0–∞” value in series [5] (iv infusion) stood at 18.83 mL/min/kg. In addition, the “Precipitation (%)” value in series [2] (AlCl3 25 μM) came to 63.2 ± 21.3%; in series [2] (AlCl3 50 μM), 84.0 ± 13.9%; in series [2] (AlCl3 100 μM), 91.6 ± 7.3%; in series [2] (AlCl3 500 μM), 96.2 ± 5.7%; in series [2] (AlCl3 1 mM) it was 99.4 ± 1.19%. For the same compound, in series [6] (LFX 200–750 mg, CFX 200–1000 mg, TC 250 mg, ref references listed in the discussion section), the “Oral bioavailabilities in humans” value is recorded as 77–88% (250 mg). Moreover, the Absolute oral bioavailability in series [6] (humans, dose of 250 mg) is reported as 77–88%. Moreover, the AUC(0-t) is 7570 ± 1380 ng·h/mL in the series “in vivo [7]”, 4680 ± 930 ng·h/mL in “in vivo [8]” (EDTA-treated rabbits) and 2540 ± 910 ng·h/mL in the series “in vivo [8]” (control rabbits). Moreover, the “TC in plasma after oral administration” value in “in vivo [8]” (at a lower dose than 30 mg/kg, rabbits) was “not detected”. For the same compound, the results for the total exposure AUC(0-inf) in the series “in vivo [8]” (EDTA-treated rabbits) and in the series “in vivo [8]” (control rabbits) were 6490 ± 1080 ng·h/mL and 3390 ± 1260 ng·h/mL, respectively. In addition, the bioavailability in the series “in vivo [8]” (EDTA-treated rabbits) turned out to be 4.9 ± 0.81%; in the series “in vivo [8]” (control rabbits), 2.56 ± 0.95%. Further, the values for the Cmax in “in vivo [8]” (EDTA-treated rabbits) and in “in vivo [8]” (control rabbits) were 1120 ± 280 ng/mL and 730 ± 220 ng/mL, respectively. The results for the time to peak (Tmax) in the series “in vivo [8]” (EDTA-treated rabbits) and in the series “in vivo [8]” (control rabbits) were 2 h and 1.67 ± 0.58 h, respectively.

Values taken from article PMC10301896 (Pharmaceutics, 2023).
